Reference: the supplement of paper PMC10307832

Experiments:
Test in all cases: relative viability (nuclei count vs DMSO), 5 days (fraction); higher = more cells survive
[1] = compound: C(C(=O)C(=O)O)Br [Bromopyruvate] + CC(=O)Nc1cccc(-n2c(=O)n(C3CC3)c(=O)c3c(Nc4ccc(I)cc4F)n(C)c(=O)c(C)c32)c1 [Trametinib] (partner 0.02 µM)
How it was run: (§1)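 Five library-drug doses in √10 steps were combined with a fixed anchor-drug dose, or a single drug was given alone, by pin tool to lung cancer cell lines in 1536-well plates the day after seeding. Nuclei were stained and counted after 5 days. Relative viability is the nuclei count in treated wells over that in vehicle wells, taken as the median of duplicate plates.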

[2] = compound: C(C(=O)C(=O)O)Br [Bromopyruvate] + CCNC(=O)c1noc(-c2cc(C(C)C)c(O)cc2O)c1-c1ccc(CN2CCOCC2)cc1 [Luminespib] (partner 0.01 µM)
How it was run: as §1

[3] = compound: CC(O)(CS(=O)(=O)c1ccc(F)cc1)C(=O)Nc1ccc(C#N)c(C(F)(F)F)c1 [Bicalutamide] + CS(=O)(=O)N1CCN(Cc2cc3nc(-c4cccc5[nH]ncc45)nc(N4CCOCC4)c3s2)CC1 [Pictilisib] (partner 1 µM)
How it was run: as §1

[4] = compound: CC(O)(CS(=O)(=O)c1ccc(F)cc1)C(=O)Nc1ccc(C#N)c(C(F)(F)F)c1 [Bicalutamide] + O=C(c1cc(Cc2n[nH]c(=O)c3ccccc23)ccc1F)N1CCN(C(=O)C2CC2)CC1 [Olaparib] (partner 8 µM)
How it was run: as §1

Cell Line	relative viability ([1]; first compound 1 µM)	relative viability ([1]; first compound 3.162 µM)	relative viability ([1]; first compound 10 µM)	relative viability ([1]; first compound 31.62 µM)	relative viability ([1]; first compound 100 µM)	relative viability ([2]; first compound 1 µM)	relative viability ([2]; first compound 3.162 µM)	relative viability ([2]; first compound 10 µM)	relative viability ([2]; first compound 31.62 µM)	relative viability ([2]; first compound 100 µM)	relative viability ([3]; first compound 0.08 µM)	relative viability ([3]; first compound 0.253 µM)	relative viability ([3]; first compound 0.8 µM)	relative viability ([3]; first compound 2.53 µM)	relative viability ([4]; first compound 0.08 µM)	relative viability ([4]; first compound 0.253 µM)	relative viability ([4]; first compound 0.8 µM)	relative viability ([4]; first compound 2.53 µM)
NCI-H1395	0.982	0.977	1.16	1.02	1.08	0.661	0.705	0.932	0.754	0.992	0.596	0.519	0.687	0.456	0.449	0.483	0.466	0.429
NCI-H1437	0.552	0.529	0.556	0.506	0.484	1.16	1.19	1.16	1.12	1.1	0.475	0.381	0.419	0.451	0.613	0.614	0.63	0.613
NCI-H1650	0.548	0.482	0.643	0.572	0.515	0.19	0.224	0.186	0.177	0.182	0.701	0.502	0.825	0.597	0.989	0.759	0.899	0.723
NCI-H1651	0.817	0.866	0.891	0.825	0.836	0.853	0.848	0.929	0.811	1.01	0.618	0.429	0.686	0.471	0.203	0.167	0.192	0.181
NCI-H1666	0.865	0.858	0.825	0.852	0.911	1.08	1.14	0.989	1.04	0.844	0.392	0.404	0.477	0.406	0.733	0.814	0.728	0.744
NCI-H1734	0.743	0.765	0.64	0.717	0.66	0.174	0.225	0.212	0.175	0.201	0.438	0.388	0.593	0.431	0.623	0.546	0.685	0.606
NCI-H1755	0.827	0.831	0.722	0.768	0.796	0.501	0.516	0.421	0.466	0.465	0.476	0.378	0.523	0.279	0.87	0.817	0.901	0.857
NCI-H1792	0.392	0.448	0.382	0.364	0.435	0.664	0.487	0.53	0.573	0.423	0.299	0.224	0.284	0.245	0.493	0.365	0.39	0.257
NCI-H1793	0.469	0.496	0.503	0.485	0.49	0.207	0.148	0.145	0.218	0.303	0.285	0.208	0.415	0.281	0.799	–	1.38	0.744
